Experimental data: US20250255932A1, “Granulocyte-Colony Stimulating Factor For The Promotion Of Scarless Tissue Regeneration” (The United States Government As Represented By The …, priority 2024, published 2025)

Key:
Cxcl2 = details: exogenous CFH; cited from earlier work
[1] = test system: ear hole injury in WT and CXCR2-KO mice; assay: Ear hole closure with topical imiquimod 5% cream; assay type: in vivo
Description: For ear wounding, a standard 2 mm mechanical punch (Roboz, Gaithersburg, MD) was used to create a hole in the center of each outer ear (pinna). Ear hole diameter was measured using a dissection microscope (Nikon) in the horizontal and vertical directions on a weekly basis. Ears were excluded if there were signs of wound infection, tearing of the ear, or abnormal geometric shape. These criteria were pre-established. For the antibiotic experiments, the same protocol as previously published was used (11).
To assess whether the CXCR2-mediated pathway utilized the same molecular mechanism, […] imiquimod 5% cream was rubbed on skin 5 days per week, beginning one week prior to ear hole injury in WT and CXCR2-KO mice. […] Imiquimod-treated CXCR2-KO mice achieved complete ear hole closure at a 90% frequency, which was >2-fold higher than CXCR2-KO mice (FIG. 9B, bottom graphs). Indeed, this 90% complete closure rate in imiquimod-treated CXCR2-KO mice is greater than the individual imiquimod or CXCR2 components combined.

WT mice undergoing WIHN = assay: Wound induced hair neogenesis (WIHN), injection into the wound bed; assay type: in vivo; details: recombinant G-CSF vs PBS injected daily into wound beds of WT mice for the first 3 days
Description: To assess whether the circulating factor(s) was a cell or protein, plasma from CXCR2-KO and WT (control) mice was collected and injected daily into the wound beds of WT mice undergoing WIHN for the first 3 days after injury (FIG. 4B). The WIHN model was used because the wound bed was more accessible. […] Thus, a circulating protein in CXCR2-KO plasma improves tissue regeneration.
(§1) Next, recombinant G-CSF or PBS (control) was injected daily into the wound beds of WT mice undergoing WIHN for the first 3 days (FIG. 4D). […] This experiment was repeated in the stented back wound model. G-CSF-treated mice healed with >3-fold less scar formation compared to control mice (FIG. 4E). […] Taken together, exogenous G-CSF is sufficient to reduce scar formation and to promote complete tissue regeneration.
1-cm^2 full-thickness skin wounds were made as previously described (10). 5-weeks later, de novo hair follicles were identified by whole-mount alkaline phosphatase staining of dermis preparations as previously described.

[2] = test system: bone-marrow derived monocytes; assay: In vitro polarization of bone-marrow derived monocytes (bulk RNA-seq gene expression); assay type: cell-based, mouse; details: monocytes treated with and without G-CSF, gene expression levels (FPKM)
Source text: (§2) In our single-cell datasets, neutrophils and macrophages were the primary cell types in injured skin to express the G-CSF receptor (Csfr3) (FIG. 8D). […] Immunofluorescence confirmed that macrophages in WT and CXCR2-KO injured skin expressed the G-CSF receptor (FIG. 8E). […] Moreover, wounded tissue was collected at day 4 after injury in the stented back wound model from G-CSF-treated or PBS-treated WT mice. […] Taken together, G-CSF reduces scar formation and promotes tissue regeneration through polarization of infiltrating macrophages into an anti-inflammatory phenotype.
Monocytes were lysed immediately by adding TRIzol LS reagent. The samples were vortexed for 20 seconds, 0.2×volumes of chloroform was added, tubes were mixed by inverting and samples were centrifuged at 13,000 rpm at 4° C. for 15 min. The aqueous phase was then purified and the RNA-seq library were made using NEBNext® Low Input RNA Library Prep Kit (E6420S/L), following the manufacturer's instructions.
Fastq files were aligned to the mm10 reference genome using STAR_2.4.0 in basic two Pass mode using the “Encode” options as specified in the manual. Reads overlapping with annotated genes (Ensembl build mm10) were counted using the summarizeOverlaps function from the R package “GenomicAlignments” in strand-specific, paired-end mode. […]

[3] = test system: epidermolysis bullosa patients; details: systemic G-CSF; cited from earlier work
[4] = test system: stented back wounds on WT mice; assay: Stented back wound model; assay type: in vivo
Description: as §1, §2
6 mm disposable biopsy punch (Acuderm) was used to make two circular full thickness wounds on the dorsal back skin of mice. Silicon wound splints (Grace Bio-Labs) were sutured with 4-0 Nylon to prevent skin contracture. Wounds were dressed with a sterile occlusive dressing and monitored daily. Borders were monitored by frequently application of permanent marker.
Standard histology and immunostaining protocols were performed, and investigators were blinded during histologic staining. 4% paraformaldehyde was used as the fixative. Briefly, immunohistochemical analysis was performed on 5-10 μm-thick sections of mouse skin. The following primary antibodies were used: rabbit monoclonal anti-Arginase-1 (93668, Cell Signaling Technology), rabbit polyclonal anti-CD80 (8679, ProSci), rabbit polyclonal anti-Histone H3 (ab5103, Abcam), goat polyclonal anti-MPO (AF3667, R&D Systems), Goat polyclonal anti-CD206 (AF2535, R&D Systems), rabbit monoclonal anti-F4/80 (70076, Cell Signaling Technology), rabbit polyclonal anti-COX2 (ab15191, Abcam), rabbit anti-iNOS (2982, Cell Signaling Technology), rabbit polyclonal anti-GCSFR (bs-2574R, Bioss) rabbit monoclonal anti-CD163 (68922, Cell Signaling Technology) and rat anti-Ly6G (551459, BD Pharmingen). […] After staining, images were directly analyzed using a Leica Microsystems DM6 B microscope equipped with a DFC9000 Camera or Keyence imaging system. […] Immunofluorescent images were analyzed using FIJI (40). The signal for the protein of interest was calculated as the percent area occupied by the cells positive for the protein of interest within the tissue section.
The paraffin sections were first de-waxed and hydrated. […] The acquired images were analyzed for fibrosis by quantifying the percent of collagen 1 (PSR) signal within the wounded tissue region. […]

In the case of complement factor H [CFH], the “fibroblast-specific expression of Cxcl2” value (Cxcl2) is listed as “reduces fibroblast-specific expression of Cxcl2”, the macrophage recruitment (Cxcl2) is listed as “no changes in macrophage recruitment” and the neutrophil recruitment (Cxcl2) is listed as “reduced neutrophil recruitment”. For the same molecule, the tissue regeneration (Cxcl2) was “partial tissue regeneration”.

In the case of `CC(C)Cn1cnc2c(N)nc3ccccc3c21` [Imiquimod, imiquimod], the ear hole closure ([1]; imiquimod 5% cream on skin 5 days per week from one week prior to injury, vs control-treated mice) is reported as “closed their ear holes even more efficiently than control-treated mice”, the “frequency of complete ear hole closure” value ([1]; imiquimod-treated CXCR2-KO mice) is reported as 90% and the “complete ear hole closure frequency relative to CXCR2-KO mice” value ([1]; imiquimod-treated CXCR2-KO mice vs CXCR2-KO mice) is reported as over 2 fold.

B1: Granulocyte Colony-Stimulating Factor (protein, UniProt P09920 31-208, looked up)
Granulocyte …: VPLVTVSALPPSLPLPRSFLLKSLEQVRKIQASGSVLLEQLCATYKLCHPEELVLLGHSLGIPKASLSGCSSQALQQTQCLSQLHSGLCLYQGLLQALSGISPALAPTLDLLQLDVANFATTIWQQMENLGVAPTVQPTQSAMPAFTSAFQRRAGGVLAISYLQGFLETARLALHHLA
notes: recombinant G-CSF injected into wound beds of WT mice
In the case of B1, the “increase in hair follicle regeneration compared to control mice” value (WT mice undergoing WIHN) is listed as 5 fold, the polarization of monocytes [2] is listed as “directly polarized in vitro bone-marrow derived monocytes into an anti-inflammatory state” and the “blister counts and wound sizes” value [3] is listed as “reduced blister counts and wound sizes”. For the same molecule, the “less scar formation compared to control mice” value ([4]; G-CSF vs PBS, scar size at day 28 after injury) was over 3 fold, the “fibrosis in healed skin (picrosirius red staining)” value ([4]; G-CSF-treated WT mice vs control skin) was “less fibrosis than control skin” and the “anti-inflammatory macrophages (Cd163 and Mrc1) in wounded tissue” value ([4]; day 4 after injury, G-CSF-treated vs PBS-treated WT mice) was “more anti-inflammatory macrophages”. It also gave an average scar diameter ([4]; histological analysis, G-CSF-treated WT mice (PBS ~1.8 mm)) of about 0.5 mm.
